In article PMC3981761, “A New Assay for Determining Ganglioside Sialyltransferase Activities Lactosylceramide-2,3-Sialyltransferase (SAT I) and Monosialylganglioside-2,3-Sialyltransferase (SAT IV)” (PLoS ONE, 2014):

System: T1, recombinant α2,3-(O)-sialyltransferase (EC 2.4.99.4), rat liver
T1 construct: gene St3gal2; recombinant commercial enzyme (EMD Bioscience), originating from rat liver
Assay: HPLC with fluorescence detection of BODIPY-GD1a formed
Format: biochemical
Details: BODIPY-GM1 constant at 13 μM, pH 6, Mes, Triton, 37°C, 1 h; donor substrate

CC(=O)N[C@H]1[C@H]([C@H](O)[C@H](O)CO)O[C@](OP(=O)(O)OC[C@H]2O[C@@H](n3ccc(N)nc3=O)[C@H](O)[C@@H]2O)(C(=O)O)C[C@@H]1O [CMP-NeuAc]
Km: 23.4 ± 0.1 µM
